Patent US5656608A (priority 1995, dated 1997)
Read-outs that look alike come from different tables or passages of the source.

Columns and labels:
[1] = system: ethanol concentration in breath, feces, urine, blood and stomach; details: for ethanol concentration, Feces / ethanol concentration, Stomach: * p < 0.05
Description: (§2) In Male Wistar rats, weighing 300 to 320 mg each, intragastric cannulas were inserted as described by Tsukamoto and French. Cannulas were tunnelled subcutaneously to the dorsal aspect of the neck and attached to infusion pumps by means of a spring-tether device and swivel allowing complete mobility of rats in metabolic cages.
(§3) A liquid diet described by Thompson and Reitz was used.
Concentration of ethanol in urine, which are representative of blood alcohol levels were measured daily. Rats were housed in metabolic cages that separated urine from feces, and urine was collected over 24 hours in bottles containing mineral oil to prevent evaporation.
ANOVA or Student's t-test was used for determination of statistical significance as appropriate. […] A p value less than 0.05 was selected before the study as the level of significance.

liver and lung = details: glycine diet; 24 hr after LPS 10 mg/kg
Description: d) Liver and lung specimens for histology were taken 24 hr after injection of LPS (10 mg/kg) and hematoxylin-eosin stained.

[2] = system: liver (steatosis, inflammation and necrosis)
From the text: Rats underwent liver biopsy and autopsy after 2 and 4 weeks of treatment with ethanol. Livers were formalin-fixed, embedded in paraffin and stained with hematoxylin and eosin to assess steatosis, inflammation and necrosis. Liver pathology was scored as described by Nanji et al. as follows: steatosis (the percent liver cells containing fat): <25%=1+; <50%=2+; <75%=3+, >75%=4+; inflammation and necrosis: 1 focus per low-power field=1+; 2 or more=2+.

infection = details: in vivo
[3] = system: partial hepatic ischemia/reperfusion and LPS injection in rats; details: glycine diet 3 days; 90 min partial hepatic ischemia/reperfusion; LPS 5 mg/kg; 24 hours; p<0.05; control 0 of 4
Description: A sublethal dose of LPS (5 mg/kg) was injected via tail vein 6 hr after reperfusion.

suspended hepatocytes = details: injury by calcium ionophores or oxidative stress; cited from earlier work
[4] = system: AST (Aspartate Aminotransferase); details: glycine diet; LPS 10 mg/kg; survivors; untreated fed 2000 IU/L
Description: (§1) The rats were then injected lipopolysaccharide (LPS; 10, 20 and 30 mg/kg resp.) from the tail vein and mortality was assessed 24 hours after the injection.
b) From the survivors, the liver enzyme AST (Aspartate Aminotransferase; a transaminase) was measured as indication for liver damage.

[5] = system: tumour necrosis factor (TNF)
liver graft = details: added to liver graft storage solution; dogs; cited from earlier work
in vivo = details: rat, iv, 10 mg/kg
[6] = system: rat liver (previously anoxic pericentral regions); assay: cells; details: for IC50: Rattus norvegicus
Description: Animals used: Male Sprague-Dawley rats weighing between 180-210 g and fed a Purina diet. Rats were fasted for 24 h prior to surgery.
Liver Perfusion: Rats were anesthetized with pentobarbital sodium (50 mg) before surgery and livers were removed surgically and perfused via a cannula inserted into the portal vein with Krebs-Henseleit bicarbonate buffer (pH 7.4, 37° C.) saturated with an oxygen-carbon dioxide (95:5) mixture in a non-recirculating system (Krebs-Henseleit, 1932). After surgery, livers were perfused at flow rates around 1 ml/g/min for 75 minutes (low-flow). Subsequently, livers were perfused at normal flow rates (4 ml/g/min) for 40 minutes (reflow).
Lactate dehydrogenase (LDH): LDH activity in the perfusate was determined using standard enzymatic techniques (Bergmeyer, 1988). […] After cooling, samples were centrifuged at 1000×g for 10 minutes and the absorbance of the supernatant was determined at 535 nm. Rates of release of LDH expressed per gram wet weight of liver per hour.
Trypan Blue Distribution Time and Histological Procedures: To assess microcirculation and cell death in the liver, trypan blue was infused into the liver at the end of all experiments at final concentrations of 0.2 mM (Belinsky et al., 1984). The time for the liver surface to turn evenly dark blue was recorded. Excess dye was removed by perfusion with Krebs-Henseleit buffer for an additional 10 minutes. Subsequently, livers were perfused with 1% paraformaldehyde for 10 minutes and fixed tissue was embedded in paraffin and processed for light microscopy. Sections were stained only with eosin, a cytoplasmic stain, so that trypan blue could be identified readily in the nuclei of damaged cells.
All nuclei of parenchymal cells in a zone radiating five cells from either periportal or pericentral regions were identified as trypan blue-positive or negative. The percentage of staining was calculated from the number of stained nuclei divided by the total number of cells in any given region.
Statistical Analysis: Student's-t-test or ANOVA was used where appropriate. Differences were considered significant when the p-value was less than 0.05.

[7] = body weight and ethanol intake during ethanol treatment; format: in vivo, Male Wistar rats; details: liquid glycine diets; 4 weeks of ethanol
Description: as §2, §3

variety of cells = details: anoxia, potassium cyanide and t-butyl hydroxide; cited from earlier work
[8] = system: Asparate Aminotransferase (AST); details: for serum AST: 4 weeks, liquid control diet 183 IU/L
Description: as §2, §3
Blood was collected via the tail vein once a week and centrifuged. Serum was stored at -20° C. in a microtube until assayed for AST by standard enzymatic procedures.

[9] = system: lipopolysaccharide (LPS) endotoxic shock in rats; details: for mortality: 5% glycine diet
Description: as §1

[10] = Table 1, Mean ± S.E.M., ethanol with or without 5% glycine
[11] = Table 1, Mean ± S.E.M., ethanol with or without 5% glycine, ** p < 0.01
[12] = Table 1, Mean ± S.E.M., ethanol with or without 5% glycine, *** p < 0.001
[13] = liquid 2% and 5% glycine diet, 4 weeks

## CCO [ethanol, reference compound]
[1]; [10]
  ethanol concentration, Feces: 82 ± 21
  ethanol concentration, Stomach: 761 ± 625
[1]; [11]
  ethanol concentration, Blood Tail Vein: 199 ± 45
[1]; [12]
  ethanol concentration, Blood Portal: 357 ± 65
  ethanol concentration, Breath: 108 ± 12
[1]; rat, in vivo, po
  ethanol concentration, Urine A.M.: 184 ± 12
  urine alcohol level, upper end of cyclic fluctuation: greater than 300 mg/dl

## NCC(=O)O [glycine]
Liver and lung
  liver necrosis (histology): less necrosis in the liver
  pulmonary edema (histology): less pulmonary edema
[2]; [13]
  fatty changes (steatosis): attenuated
  necrosis and inflammation: almost totally absent
[2]; liquid glycine diets
  inflammation (statistics): only a tendency for reduction
  reductions of steatosis and necrosis (statistics): statistically significantly
[2]; rat
  liver injury due to chronic intragastric ethanol exposure: prevents liver injury
infection
  protective effect compared with fish oil: more profound and acute than that obtainable by fish oil treatment
[3]
  survival: 5 rats out of 6
Suspended hepatocytes
  protection of suspended hepatocytes: not found to protect
[4]
  AST level: markedly and significantly reduced
[5]; 5% glycine diet, LPS 10 mg/kg, control 60 min
  time of serum TNF peak after injection: 150 min
[5]; 5% glycine diet, LPS 10 mg/kg, p<0.05, control over 6000 pg/ml
  suppression of serum TNF increase: at least 50%
[5]; following endotoxic shock
  release of TNF into the systemic circulation: significantly reduces the release of TNF
Liver graft
  survival: did not improve survival
In vivo
  concentration at 6 h: 1730 ± 515 µM
[6]
  LDH release and cell death during reperfusion (in words): minimized LDH release and cell death almost completely
  MDA production during reperfusion: tends to decrease with glycine, changes are not statistically significant
  oxygen uptake (indicator of mitochondrial function): not altered
[6]; 2 mM glycine, 40 minutes of reperfusion, control about 460 seconds
  trypan blue distribution time: about 250 seconds
[6]; 5 and 40 minutes after reflow
  trypan blue distribution time (in words): reduced significantly at 5 and 40 minutes after reflow
[6]; 40 vs 5 minutes after reflow
  change of trypan blue distribution time at later vs earlier time point: about 2 fold
[6]; 5 minutes after reperfusion, control 225 seconds, p<0.05, n=5
  trypan blue distribution time: about 190 seconds
[6]; 40 min, read-out: half maximal decrease of trypan blue distribution time, 40 minutes of reflow
  IC50: 180 µM
[6]; read-out: half-maximal decrease of LDH release, rat liver, glycine infused from 10 min before reflow
  IC50: 180 µM
[6]; read-out: half-maximal effect (trypan blue distribution time; cytoprotective effect), reflow liver perfusion
  IC50: 180 µM
[6]; glycine 0.06-2 mM
  enzyme (LDH) release, dose dependence (in words): minimizes enzyme release in a dose-dependent manner
[6]; physiological concentrations of 240-300 mmol (in humans)
  protection in the rat liver reperfusion model: more than half maximal protection
[7]
  body weight: no significant differences in body weight
Variety of cells
  cell damage: reduce cell damage
Kupffer cells
  ischemic/endotoxic liver and organ damage, activation of Kupffer cells: prevents or at least substantially suppresses
[8]; both glycine treatments, every point during the study
  increase of serum AST (in words): attenuated significantly
[8]; liquid 2% glycine diet
  serum AST: 66 IU/L
[8]; liquid 5% glycine diet
  serum AST: 100 IU/L
[1]; [10]
  ethanol concentration, Feces: 15 ± 11
  ethanol concentration, Stomach: 26
[1]; [11]
  ethanol concentration, Blood Tail Vein: 21 ± 13
  ethanol concentration, Urine A.M.: 26 ± 25
[1]; [12]
  ethanol concentration, Blood Portal: 10 ± 7
  ethanol concentration, Breath: 5 ± 4
  ethanol concentration, Urine 24 hr: 24 ± 8
[1]; glycine-treated rats
  alcohol in stomach contents (in words): reduced dramatically
[1]; liquid 2% glycine diet
  reduction of the mean urine alcohol concentration: 50%
[1]; liquid 5% glycine diet
  reduction of the mean urine alcohol concentration: 70%
[1]; liquid glycine diets
  daily urine alcohol concentration (in words): very low but were still cyclic
[1]; rat, in vivo
  transfer of alcohol from the stomach into the blood: prevents the transfer of alcohol from the stomach into the blood
[9]; 5% glycine diet 3 days, LPS 10 mg/kg, control 50% mortality, p<0.05
  protection against LPS mortality: 100%
[9]; LPS 20 mg/kg, control 70%
  mortality: 30%
[9]; LPS 30 mg/kg, control 100%
  mortality: 90%
